Here are results for 34 compounds from US9688684B2, “Substituted tetrazolo[1,5-a]pyrazines as ROR-gamma inhibitors” (Merck Patent GmbH, priority 2013, dated 2017).

What is called IC50 is the concentration needed to halve the response being measured. Higher therefore signals a need for much substance.

SMILES strings stand for the structures.

Sequence of human RORγ ligand binding domain (GST-hRORγ-LBD) (P51449 269-508): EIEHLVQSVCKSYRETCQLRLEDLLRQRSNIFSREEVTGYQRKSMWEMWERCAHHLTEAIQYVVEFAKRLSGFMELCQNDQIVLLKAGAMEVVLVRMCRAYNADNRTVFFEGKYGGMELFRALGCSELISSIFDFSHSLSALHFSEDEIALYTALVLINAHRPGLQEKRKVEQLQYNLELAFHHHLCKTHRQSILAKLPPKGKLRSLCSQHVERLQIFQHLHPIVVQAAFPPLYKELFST

This experiment addresses human RORγ ligand binding domain (GST-hRORγ-LBD) (Homo sapiens (Human), UniProt P51449). Put plainly: TR-FRET assay (biochemical cofactor interaction assay, GST-hRORγ-LBD / TRAP220 peptide). The text has this:
RORγ is an orphan member of the nuclear receptor (NR) family displaying constitutive activity. The activity of nuclear receptors can be modulated by ligand-induced cofactor protein interactions. For example, agonist binding leads to recruitment of coactivator protein, and antagonist binding either blocks coactivator interaction or facilitates the recruitment of corepressors. […] The conformational change induced by ligand binding influences interactions with LXXLL motif peptides.
RORγ (t) is a thymus-specific isoform of RORγ which is widely expressed. It shares the same ligand binding domain (LBD) sequence with RORγ. Thus, a screen using the LBD will yield antagonists targeting both RORγ and RORγt.
In order to identify compounds which block activity of the human nuclear receptor Retinoid-related Orphan Receptor gamma (RORγ) a biochemical cofactor interaction assay based on the TR-FRET principle is performed. […] The ligand-binding domain (LBD) of RORγ is expressed as fusion protein with GST in […] cells using the vector pDEST15. Cells are lysed by lysozyme-treatment and sonication, and the fusion proteins purified over glutathione sepharose (Pharmacia) according to the manufacturers instructions. The strong constitutive interaction is disrupted upon binding of functional antagonists. The strength of the interaction is monitored by TR-FRET between streptavidine APC interacting with the biotinylated peptide and Europium-labelled Anti-GST.
Compound `CN(C)c1ccc(C2c3nnnn3CCN2CC2CCCCC2)cc1` (stereo not shown) [Compound 19, [4-(7-Cyclohexylmethyl-5,6,7,8-tetrahydro-tetrazolo[1,5-a]pyrazin-8-yl)-phenyl]-dimethyl-amine] came in with an IC50 of 9.9 to 40 µM.
In the case of `CC(C)Oc1ccc(CN2CCn3nnnc3C2C2CCCCC2)cc1` (stereo not shown) [Compound 64, 8-Cyclohexyl-7-(4-isopropoxy-benzyl)-5,6,7,8-tetrahydro-tetrazolo[1,5-a]pyrazine] it was 9.9 to 40 µM; in that of `Cc1cccc(CN2CCn3nnnc3C2c2ccc(F)cc2)c1` (single isomer, unassigned) [Compound 93-b, 8-(4-Fluoro-phenyl)-7-(3-methyl-benzyl)-5,6,7,8-tetrahydro-tetrazolo[1,5-a]pyrazine], 9.9 to 40 µM; in that of `Cc1cccc(C2c3nnnn3CCN2Cc2cn(-c3ccccc3)nc2C(C)C)c1` (stereo not shown) [Compound 27, 7-(3-Isopropyl-1-phenyl-1H-pyrazol-4-ylmethyl)-8-m-tolyl-5,6,7,8-tetrahydro-tetrazolo[1,5-a]pyrazine], 9.9 to 40 µM.
The same measure for `Fc1ccc(F)c(CN2CCn3nnnc3C2c2cc(F)ccc2F)c1` (stereo not shown) [Compound 32, 7-(2,5-Difluoro-benzyl)-8-(2,5-difluoro-phenyl)-5,6,7,8-tetrahydro-tetrazolo[1,5-a]pyrazine]: 9.9 to 40 µM; for `CN(C)c1ccc(C2c3nnnn3CCN2Cc2cccc(F)c2F)cc1` (stereo not shown) [Compound 20, {4-[7-(2,3-Difluoro-benzyl)-5,6,7,8-tetrahydro-tetrazolo[1,5-a]pyrazin-8-yl]-phenyl}-dimethyl-amine]: 9.9 to 40 µM.
The same measure for `Cc1cccc(CN2CCn3nnnc3C2c2cn(-c3ccccc3)nc2C(C)C)c1` (stereo not shown) [Compound 57, 8-(3-Isopropyl-1-phenyl-1H-pyrazol-4-yl)-7-(3-methyl-benzyl)-5,6,7,8-tetrahydro-tetrazolo[1,5-a]pyrazine]: 9.9 to 40 µM; for `Fc1ccc(F)c(CN2CCn3nnnc3C2c2cccc(F)c2F)c1` (stereo not shown) [Compound 74, 7-(2,5-Difluoro-benzyl)-8-(2,3-difluoro-phenyl)-5,6,7,8-tetrahydro-tetrazolo[1,5-a]pyrazine]: 9.9 to 40 µM.
`COc1ccc(C2c3nnnn3CCN2Cc2cn(-c3ccccc3)nc2C(C)C)cc1` (stereo not shown) [Compound 5, 7-(3-Isopropyl-1-phenyl-1H-pyrazol-4-ylmethyl)-8-(4-methoxy-phenyl)-5,6,7,8-tetrahydro-tetrazolo[1,5-a]pyrazine] registered an IC50 of 9.9 to 40 µM.
The same measure for `Cc1nn(C)c(C)c1CN1CCn2nnnc2C1c1cn(-c2ccccc2)nc1C(C)C` (stereo not shown) [Compound 157, 8-(3-Isopropyl-1-phenyl-1H-pyrazol-4-yl)-7-(1,3,5-trimethyl-1H-pyrazol-4-ylmethyl)-5,6,7,8-tetrahydro-tetrazolo[1,5-a]pyrazine]: 9.9 to 40 µM; for `Fc1ccc(C2c3nnnn3CCN2Cc2cccc(Br)c2)cc1` (single isomer, unassigned) [Compound 96-b, 7-(3-Bromo-benzyl)-8-(4-fluoro-phenyl)-5,6,7,8-tetrahydro-tetrazolo[1,5-a]pyrazine]: 9.9 to 40 µM.
The same measure for `Fc1ccc(F)c(C2c3nnnn3CCN2Cc2cccc(F)c2F)c1` (stereo not shown) [Compound 35, 7-(2,3-Difluoro-benzyl)-8-(2,5-difluoro-phenyl)-5,6,7,8-tetrahydro-tetrazolo[1,5-a]pyrazine]: 9.9 to 40 µM.
The same measure for `COc1ccc(OC)c(C2c3nnnn3CCN2Cc2cn(-c3ccccc3)nc2C(C)C)c1` (stereo not shown) [Compound 13, 8-(2,5-Dimethoxy-phenyl)-7-(3-isopropyl-1-phenyl-1H-pyrazol-4-ylmethyl)-5,6,7,8-tetrahydro-tetrazolo[1,5-a]pyrazine]: 9.9 to 40 µM; for `CCn1cc(CN2CCn3nnnc3C2c2cn(-c3ccccc3)nc2C(C)C)cn1` (stereo not shown) [Compound 155, 7-(1-Ethyl-1H-pyrazol-4-ylmethyl)-8-(3-isopropyl-1-phenyl-1H-pyrazol-4-yl)-5,6,7,8-tetrahydro-tetrazolo[1,5-a]pyrazine]: 9.9 to 40 µM; for `CN(C)c1ccc(C2c3nnnn3CCN2Cc2cc(F)ccc2F)cc1` (stereo not shown) [Compound 16, {4-[7-(2,5-Difluoro-benzyl)-5,6,7,8-tetrahydro-tetrazolo[1,5-a]pyrazin-8-yl]-phenyl}-dimethyl-amine]: 9.9 to 40 µM.
Regarding `Cc1cccc(CN2CCn3nnnc3C2c2ccccn2)c1` (stereo not shown) [Compound 86, 7-(3-Methyl-benzyl)-8-pyridin-2-yl-5,6,7,8-tetrahydro-tetrazolo[1,5-a]pyrazine], the IC50 was 9.9 to 40 µM.
In the case of `Brc1cccc(C2c3nnnn3CCN2CC2CCCCC2)c1` (stereo not shown) [Compound 9, 8-(3-Bromo-phenyl)-7-cyclohexylmethyl-5,6,7,8-tetrahydro-tetrazolo[1,5-a]pyrazine] it was 9.9 to 40 µM.
The compound `CC(C)c1nn(-c2ccccc2)cc1CN1CCn2nnnc2C1c1ccc(F)cc1` (stereo not shown) [Compound 11, 8-(4-Fluoro-phenyl)-7-(3-isopropyl-1-phenyl-1H-pyrazol-4-ylmethyl)-5,6,7,8-tetrahydro-tetrazolo[1,5-a]pyrazine] registered an IC50 of 9.9 to 40 µM.
The same measure for `CC(C)c1nn(-c2ccccc2)cc1C1c2nnnn2CCN1Cc1ccn[nH]1` (stereo not shown) [Compound 153, 8-(3-Isopropyl-1-phenyl-1H-pyrazol-4-yl)-7-(2H-pyrazol-3-ylmethyl)-5,6,7,8-tetrahydro-tetrazolo[1,5-a]pyrazine]: 9.9 to 40 µM; for `CCOc1ccc(CN2CCn3nnnc3C2C2CCCCC2)cc1` (stereo not shown) [Compound 67, 8-Cyclohexyl-7-(4-ethoxy-benzyl)-5,6,7,8-tetrahydro-tetrazolo[1,5-a]pyrazine]: 9.9 to 40 µM; for `Cc1cccc(CN2CCn3nnnc3C2c2ccncc2)c1` (stereo not shown) [Compound 87, 7-(3-Methyl-benzyl)-8-pyridin-4-yl-5,6,7,8-tetrahydro-tetrazolo[1,5-a]pyrazine]: 9.9 to 40 µM.
On to `COc1ccc(OC)c(C2c3nnnn3CCN2Cc2cccc(F)c2F)c1` (stereo not shown) [Compound 151, 7-(2,3-Difluoro-benzyl)-8-(2,5-dimethoxy-phenyl)-5,6,7,8-tetrahydro-tetrazolo[1,5-a]pyrazine], for which the IC50 was 9.9 to 40 µM.
The same measure for `Fc1cccc(CN2CCn3nnnc3C2c2cccc(F)c2F)c1F` (stereo not shown) [Compound 79, 7-(2,3-Difluoro-benzyl)-8-(2,3-difluoro-phenyl)-5,6,7,8-tetrahydro-tetrazolo[1,5-a]pyrazine]: 9.9 to 40 µM; for `CC(C)c1nn(-c2ccccc2)cc1CN1CCn2nnnc2C1c1cn(-c2ccccc2)nc1C(C)C` (stereo not shown) [Compound 62, 8-(3-Isopropyl-1-phenyl-1H-pyrazol-4-yl)-7-(3-isopropyl-1-phenyl-1H-pyrazol-4-ylmethyl)-5,6,7,8-tetrahydro-tetrazolo[1,5-a]pyrazine]: 9.9 to 40 µM; for `Fc1ccc(CN2CCn3nnnc3C2c2cccc(F)c2)cc1` (single isomer, unassigned) [Compound 91-a, 7-(4-Fluoro-benzyl)-8-(3-fluoro-phenyl)-5,6,7,8-tetrahydro-tetrazolo[1,5-a]pyrazine]: 9.9 to 40 µM.
In the case of `CC(C)Oc1ccc(C2c3nnnn3CCN2CC2CCCCC2)cc1` (stereo not shown) [Compound 3, 7-Cyclohexylmethyl-8-(4-isopropoxy-phenyl)-5,6,7,8-tetra hydro-tetrazolo[1,5-a]pyrazine] it was 9.9 to 40 µM; in that of `CC(C)c1nn(-c2ccccc2)cc1CN1CCn2nnnc2C1c1ccc2c(c1)OCO2` (stereo not shown) [Compound 29, 8-Benzo[1,3]dioxol-5-yl-7-(3-isopropyl-1-phenyl-1H-pyrazol-4-ylmethyl)-5,6,7,8-tetrahydro-tetrazolo[1,5-a]pyrazine], 9.9 to 40 µM; in that of `COc1ccc(CN2CCn3nnnc3C2c2ccccc2F)cc1` (stereo not shown) [Compound 22, 8-(2-Fluoro-phenyl)-7-(4-methoxy-benzyl)-5,6,7,8-tetrahydro-tetrazolo[1,5-a]pyrazine], 9.9 to 40 µM.
With `Cn1ccc(CN2CCn3nnnc3C2c2ccc(F)cc2)n1` (stereo not shown) [Compound 85, 8-(4-Fluoro-phenyl)-7-(1-methyl-1H-pyrazol-3-ylmethyl)-5,6,7,8-tetrahydro-tetrazolo[1,5-a]pyrazine], the IC50 is 9.9 to 40 µM.
In the case of `Brc1cccc(CN2CCn3nnnc3C2c2cccc(Br)c2)c1` (stereo not shown) [Compound 6, 7-(3-Bromo-benzyl)-8-(3-bromo-phenyl)-5,6,7,8-tetrahydro-tetrazolo[1,5-a]pyrazine] it was 9.9 to 40 µM.
Consider `COc1ccc(OC)c(CN2CCn3nnnc3C2c2ccc(OC(C)C)cc2)c1` (stereo not shown) [Compound 1, 7-(2,5-Dimethoxy-benzyl)-8-(4-isopropoxy-phenyl)-5,6,7,8-tetrahydro-tetrazolo[1,5-a]pyrazine], for which the IC50 was 9.9 to 40 µM.
In the case of `c1csc(CN2CCn3nnnc3C2c2cccs2)c1` (stereo not shown) [Compound 47, 8-Thiophen-2-yl-7-thiophen-2-ylmethyl-5,6,7,8-tetrahydro-tetrazolo[1,5-a]pyrazine] it was 9.9 to 40 µM; in that of `CCOc1ccc(C2c3nnnn3CCN2Cc2cn(-c3ccccc3)nc2C(C)C)cc1` (stereo not shown) [Compound 43, 8-(4-Ethoxy-phenyl)-7-(3-isopropyl-1-phenyl-1H-pyrazol-4-ylmethyl)-5,6,7,8-tetrahydro-tetrazolo[1,5-a]pyrazine], 9.9 to 40 µM; in that of `C1CCC(CN2CCn3nnnc3C2C2CCCCC2)CC1` (stereo not shown) [Compound 69, 8-Cyclohexyl-7-cyclohexylmethyl-5,6,7,8-tetrahydro-tetrazolo[1,5-a]pyrazine], 9.9 to 40 µM.
